We go through twelve molecules from PMC9214608 (RSC Advances, 2022).

For test [1], the target named is SARS-CoV-2 main protease (M^pro or 3CL^pro) (Severe acute respiratory syndrome coronavirus 2, UniProt P0DTD1). Put plainly: biochemical.
The subject of test [2] is MERS-CoV 3CL^pro. As to conditions: cited from earlier work.
Setting [3] is: In vitro SARS-COV-2 M^pro IC50, FRET-based assay, mean ± SD.

Each structure is given as a SMILES string. Where two headings read alike, the source gives them in different places.

In test [1] (setting [3]), `COc1cc(-c2cc(=O)c3c(O)cc(O)c(OC)c3o2)cc(OC)c1OC` [Compound 11, 5,7-dihydroxy-3′,4′,5′,8-tetramethoxy flavone] had a 50% inhibitory concentration (IC50) of 5.07 ± 0.26 µM.
`CCCCC/C=C\C/C=C\CCCCCCCC(=O)O` [Compound 3, linoleic acid] showed an IC50 in test [1] (setting [3]) of 20.7 ± 1.05 µM.
On to `COc1cc(O)cc(O)c1C(=O)/C=C/c1ccc(O)cc1` [Helichrysetin], for which the “Inhibition of MERS-CoV 3CL^pro” value in test [2] is “able to inhibit MERS-CoV 3CL^pro”.
Take `O=c1cc(-c2ccc(O)c(O)c2)oc2c([C@@H]3O[C@H](CO)[C@@H](O)[C@H](O)[C@H]3O)c(O)cc(O)c12` [Compound 16, orientin]: the IC50 in test [1] (setting [3]) was 27.5 ± 1.4 µM.
On the same count and under the same terms, the same measure for `C[C@H]1[C@H](C)CC[C@]2(C)CC[C@]3(C)C(=CC[C@@H]4[C@@]5(C)CC[C@H](O)C(C)(C)[C@@H]5CC[C@]43C)[C@H]12` [Compound 2, α-amyrin]: 4.18 ± 0.21 µM; for `COc1c(O)cc2c(c1O)C(=O)CC(c1ccc(O)cc1)O2` (stereo not drawn) [Compound 9, 5,7,4′-trihydroxy-6-methoxy flavanone]: 11.8 ± 0.6 µM.
Same read-out and setting: the same measure for `COc1cc(-c2cc(=O)c3c(O)cc(OC)c(OC)c3o2)ccc1O` [Compound 10, 4′,5-dihydroxy-3′,7,8-trimethoxyflavone]: 12.8 ± 0.65 µM.
For `O=c1cc(-c2ccc(O)c(O[C@@H]3O[C@H](CO)[C@@H](O)[C@H](O)[C@H]3O)c2)oc2cc(O)cc(O)c12` [Compound 17, luteolin-3′-O-β-D-glucoside], the IC50 in test [1] (read-out: In vitro SARS-COV-2 M^pro IC50) turned out to be 10.1 ± 0.52 µM.
`COc1c(O)cc2c(c1O)C(=O)CC(c1cc(O)cc(O)c1)O2` (stereo not drawn) [Compound 13, 3′,5′,5,7-tetrahydroxy-6-methoxyflavanone] showed an IC50 in test [1] (setting [3]) of 5.56 ± 0.28 µM.
Same read-out and setting: with `COc1cc(C2CC(=O)c3c(O)cc(O)c(OC)c3O2)ccc1O` (stereo not drawn) [Compound 8, 5,7,4′-trihydroxy-8,3′-dimethoxy flavanone] the figure was 27.9 ± 1.42 µM; with `Cc1cccc(C)c1OCC(=O)N[C@@H](Cc1ccccc1)[C@@H](O)C[C@H](Cc1ccccc1)NC(=O)[C@H](C(C)C)N1CCCNC1=O` [Lopinavir, reference compound], 0.225 ± 0.01 µM.
The molecule `C=C(C)C(C=C[C@@H](C)[C@H]1CC[C@H]2[C@@H]3CC=C4CC(O)CC[C@]4(C)[C@H]3CC[C@]12C)CC` (stereo partly drawn) [Compound 1, 24-β-ethyl-cholesta-5(6),22(23),25(26)-triene-3-ol] gave an IC50 in test [1] (In vitro SARS-COV-2 M^pro IC50) of 12.5 ± 0.64 µM.
